Measured values: patent US6919365B2, “Imidazolidinedione derivatives and use thereof as drugs” (Senju Pharmaceutical Co., Ltd., priority 2001, dated 2005)
pIC50: −log10 of the molar value.

How the values were obtained:
[1] = target: T1, recombinant human chymase (Homo sapiens, UniProt P23946); test: Chymase inhibition activity (fluorogenic substrate Suc-Ala-Ala-Pro-Phe-MCA); assay type: biochemical; details: 30° C., 30 minutes
T1 sequence (P23946 22-247): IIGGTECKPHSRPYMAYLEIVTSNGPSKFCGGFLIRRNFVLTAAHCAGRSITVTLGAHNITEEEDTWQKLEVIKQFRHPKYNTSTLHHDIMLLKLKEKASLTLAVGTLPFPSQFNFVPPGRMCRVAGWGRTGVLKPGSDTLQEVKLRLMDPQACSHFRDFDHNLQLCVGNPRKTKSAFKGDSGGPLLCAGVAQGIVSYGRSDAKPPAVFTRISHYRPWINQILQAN
Experimental: The chymase inhibition activity was measured according to the method of Kato et al. (J. Biochem., Vol.103, pp820(1988)). That is, 72.5 μL of a solution adjusted so that the enzyme activity of recombinant human chymase (JP-A No.10-87567) became 2.3 μUnit with HEPES buffer, was added to 2.5 μL of a test substance dissolved in dimethyl sulfoxide (DMSO), a temperature was retained at 30° C. for 5 minutes, and 125 μL of 0.6 mM Suc-Ala-Ala-Pro-Phe-MCA (manufactured by Peptide Institute Inc.)/Tris buffer as a substrate was added to obtain a reaction solution. The reaction solution was set at a multi-well plate reader CYTOFLUOR Series 4000 (manufactured by Perceptive Biosystems), and a change in the fluorescent intensity was measured at 30° C. for 30 minutes with time (excitation wavelength 360 nm, detection wavelength 450 nm).
As a control, 2.5 μL of DMSO containing no test substance was used, and this was treated and measured similarly. As a blank, a Tris hydrochloric acid buffer was added instead of a chymase solution, and treated and measured similarly.
The chymase inhibition rate (%) was obtained by calculating a slope (S) of an approximation straight line for each test substance, a slope (C) of an approximation straight line for a control, a slope (Bs) of an approximation straight line for a blank of each test substance, and a slope (Bc) of approximation straight line for a blank of a control from a change in the fluorescent intensity, and calculating from the following equation. Inhibition rate (%)=[1−(S−Bs)/(C−Bc)]×100
(§1) Regarding the compounds of the present invention, each 50% inhibition concentration (IC50) was calculated from the chymase and tryptase inhibition activity obtained by the aforementioned method.

[2] = target: human lung tryptase; test: Tryptase inhibition activity (fluorogenic substrate Boc-Val-Pro-Arg-MCA); assay type: biochemical; details: pH7.1, 30° C., 30 minutes
Experimental: Then, the tryptase inhibition activity was measured according to the method of Muramatsu et al. (Biol. Chem. Hoppe-Seyler, vol.369, pp617(1988)). That is, 62.5 μL of a solution adjusted so that the enzyme activity of human lung tryptase (manufactured by Sigma) became 7.9 μUnit with 0.1M phosphate buffer-1.5M NaCl (pH7.1), was added to 2.5 μL of a test substance dissolved in DMSO, a temperature was retained at 30° C. for 5 minutes, and 125 μL of 0.6mM Boc-Val-Pro-Arg-MCA. HCl (manufactured by BACHEM)/0.1M phosphate buffer (pH7.1) as a substrate was added to obtain a reaction solution. The reaction solution was set at a multi-well plate reader CYTOFLUOR Series 4000 (manufactured by Perceptive Biosystems), and a change in the fluorescent intensity was measured at 30° C. for 30 minutes with time (excitation wavelength 360 nm, detection wavelength 450 nm). As a control, 2.5 μL of DMSO containing no test substance was used, and treated and measured similarly. As a blank, 0.1M phosphate buffer-1.5M NaCl (pH7.1) was added in place of a tryptase solution, and treated and measured similarly.
A tryptase inhibition rate (%) was obtained by calculating a slope (S) of an approximation straight line for each test material, a slope (C) of an approximation straight line for a control, a slope (Bs) of an approximation straight line for a blank of each test substance, and a slope (Bc) of an approximation straight line for a blank of a control from a change in the fluorescent intensity, and calculating from the following equation. Inhibition rate (%)=[1−(S−Bs)/(C−Bc)]×100 Experimental Results
as §1

[3] = system: rat mast cells (intraperitoneal cell suspension, PEC); test: Rat mast cell histamine release inhibition test; assay type: cell-based; details: for Inhibition rate (%) of release of histamine from mast cells: phosphatidylserine and concanavalin A stimulated
Experimental: A rat was killed by exsanguinations under ether anesthesia, and 30 mL of a buffer for mast cells (150 mM NaCl, 3.7 mM KCl, 3.0 mM Na2HPO4, 1 mM CaCl2, 5.6 mM glucose) was injected intraperitoneally. An abdominal part was massaged for 90 seconds, and a suspension of intraperitoneal cell was taken. A suspension of an intraperitoneal cell collected from 5 animals was centrifuged at 100 G at 4° C. for 5 minutes, a buffer for mast cells was added, washed three times and, finally, adjusted so that the number of mast cells became 3 to 5×10^5 cells/mL (hereinafter, this solution is abbreviated as PEC).
Compound 5 was dissolved in DMSO to prepare a test drug solution at each concentration (final DMSO concentration 0.8%). 100 μL of the test drug solution was added to 400 μL of the prepared PEC, and pre-incubated at 37° C. for 15 minutes. After pre-incubation, each 50 μL of a solution of phosphatidylserine (10 μg/ml) and concanavalin A(15 μg/ml) which is a histamine-releasing substance was added, and further incubated for 20 minutes. 1.4 mL of an ice-cooled buffer for mast cells was added to stop the reaction, and centrifuged at 250 G at 4° C. for 10 minutes. An amount of the histamine supernatant was quantitated using a fluorescent method. That is, 20 μL of 1N NaOH was added to 40 μL of the supernatant, 20 μL of a 1% o-phthalaldehyde solution in methanol was further added, and allowed to stand at room temperature for 5 minutes. Thereafter, 20 μL of 3N hydrochloric acid was added, and the fluorescent intensity was measured at an excitation wavelength of 350 nm and a fluorescent wavelength of 450 nm to obtain an amount of histamine.
A histamine release inhibition rate (%) was calculated from the following equation: Inhibition rate (%)=[1−(S−B)/(C−B)]×100 • S: amount of histamine in the supernatant, C: amount of histamine in control, B: amount of histamine in blank Test Results

Compound	pIC50 [1]	pIC50 [2]	also measured
1-(3-Chlorobenzyl)-5,5-dimethyl-3-naphthylcarbonylimidazolidine-2,4-dione [Compound 28]	5.66	5.66	
1-Isobutyl-3-naphthylcarbonyl-5,5-diphenylimidazolidine -2,4-dione [Compound 23]	6.55	5.36	
1-Methyl-3-naphthylcarbonyl-5,5-diphenylimidazolidine-2,4-dione [Compound 22]	5.46	7.05	
3-Naphthylcarbonyl-1,3-diazaspiro[4.5]decane-2,4-dione [Compound 34]	4.49	6.55	
3-Naphthylcarbonyl-2,4-dioxo-5,5-diphenylimidazolidinylacetic acid [Compound 5]	5.92	6.01	Inhibition of release of histamine (in words) ([3]; 8 to 100 μM): inhibited release of histamine concentration-dependently; Inhibition rate (%) of release of histamine from mast cells ([3]; test drug concentration 8 μM): 28%; Inhibition rate (%) of release of histamine from mast cells ([3]; test drug concentration 40 μM): 59%; Inhibition rate (%) of release of histamine from mast cells ([3]; test drug concentration 80 μM): 78%; Inhibition rate (%) of release of histamine from mast cells ([3]; test drug concentration 100 μM): 83%
3-Naphthylcarbonyl-5,5-diphenylimidazolidine-2,4-dione [Compound 2]	6.47	7.34	
4-(5,5-Dimethyl-3-naphthylcarbonyl-2,4-dioxoimidazolidinylmethyl)benzonitrile [Compound 27]	6.27	5.15	
5,5- Dimethyl-3-naphthylcarbonylimidazolidine-2,4-dione [Compound 8]	4.52	5.49	
5,5-Dimethyl-1,3-bisnaphthylcarbonyl imidazolidine-2,4-dione [Compound 33]	5.74	5.82	
5,5-Dimethyl-3-naphthylcarbonyl-1,3-oxazolidine-2,4-dione [Compound 9]	6.14	6.00	
5,5-Dimethyl-3-naphthylcarbonyl-1-(2-oxo-2-phenylethyl)imidazolidine-2,4-dione [Compound 30]	5.48	5.14	
5-Methyl-3-naphthylcarbonyl-2,4-dioxo-5-phenylimidazolidinylacetic acid [Compound 16]	6.04	5.74	
O=C1NC(c2ccccc2)(c2ccccc2)C(=O)N1C(=O)c1ccc2ccccc2c1 [Compound 1, 3-(2-Naphthylcarbonyl)-5,5-diphenylimidazolidine-2,4-dione]	7.18	6.41	
CC1(c2ccccc2)NC(=O)N(C(=O)c2cccc3ccccc23)C1=O (centres unmarked) [Compound 7]	5.19	6.43	
CC1(c2ccccc2)C(=O)N(C(=O)c2cccc3ccccc23)C(=O)N1Cc1cccc(Cl)c1 (centres unmarked) [Compound 25, 1-(3-Chlorobenzyl)-5-methyl-3-naphthylcarbonyl-5-phenylimidazolidine-2,4-dione]	6.24	4.07	
Ethyl 2-(3-naphthylcarbonyl-2,4-dioxo-5,5-diphenylimidazolidinyl)acetate [Compound 3]	6.00	6.03	
Tert-butyl (5,5-dimethyl-3-naphthylcarbonyl-2,4-dioxoimidazolidinyl)acetate [Compound 13]	5.57	5.80	
tert-Butyl (5-methyl-3-naphthylcarbonyl-2,4-dioxo-5-phenylimidazolidinyl)acetate [Compound 14]	6.59	5.80	
